# From patent US20260242330A1, “USE OF AN AMANTADINE MONONITRATE COMPOUND IN MANUFACTURE OF A MEDICAMENT FOR THE PREVENTION AND TREATMENT OF HYPERTENSION” (GUANGZHOU MAGPIE PHARMACEUTICALS CO., LTD., priority 2022, published 2026)
# Tested on: blood pressure of subjects
# Assay: Effect of single administration of MN-08 on blood pressure of subjects (clinical trial)
# Assay type: in vivo, human
# Excerpt: All subjects in the following embodiments have signed informed consent forms, which comply with medical ethics regulations. According to the relevant provisions of Chinese Guidelines for the Prevention and Treatment of Hypertension (2018 Revision), the values measured for hypertension are the average blood pressure measured three times on a different day without the use of antihypertensive drugs. Therefore, in this embodiment, the baseline blood pressure of the subjects before administration is set as the average blood pressure measured at three different times: screening period, occupancy period, and 1 hour before administration, as shown in Tables 1 to 3.
# In the clinical trial of amantadine mononitrate compound MN-08, it is investigated the effect of MN-08 on blood pressure in subjects. The experiments were carried out to analyze the blood pressure status of subjects in both the single dose and multiple dose groups.
# During a single administration, each dose group is required to fast for at least 10 hours before administration, without water deprivation overnight, and on the day of administration, the medication is taken on an empty stomach at around 8 a.m., with 240 mL of water administered.
structure (smiles),measurement,setting,value
CCC12CC3CC(N)(C1)CC(CO[N+](=O)[O-])(C3)C2 (centres unmarked) [MN-08],diastolic pressure reduced by,"6 mg single dose, at 6 hours",17.1%
same,systolic pressure reduced by,"6 mg single dose, at 6 hours",13.2%
same,DP,"Subject 1, 12 mg single dose, 6 hrs after adm. (D 1), baseline 77 mmHg",64 mmHg
same,SP,"Subject 1, 12 mg single dose, 6 hrs after adm. (D 1), baseline 122 mmHg",104 mmHg
same,DP (reduce amplitude),"Subject 1, 12 mg single dose, 6 hrs after adm. (D 1), vs baseline 77 mmHg",−16.9%
same,SP (reduce amplitude),"Subject 1, 12 mg single dose, 6 hrs after adm. (D 1), vs baseline 122 mmHg",−14.8%
same,DP,"Subject 1, 12 mg single dose, 12 hrs after adm. (D 1), baseline 77 mmHg",60 mmHg
same,SP,"Subject 1, 12 mg single dose, 12 hrs after adm. (D 1), baseline 122 mmHg",109 mmHg
same,DP (reduce amplitude),"Subject 1, 12 mg single dose, 12 hrs after adm. (D 1), vs baseline 77 mmHg",−22.1%
same,SP (reduce amplitude),"Subject 1, 12 mg single dose, 12 hrs after adm. (D 1), vs baseline 122 mmHg",−10.7%
same,DP,"Subject 2, 42 mg single dose, 6 hrs after adm. (D 1), baseline 79 mmHg",63 mmHg
same,SP,"Subject 2, 42 mg single dose, 6 hrs after adm. (D 1), baseline 113 mmHg",96 mmHg
same,DP (reduce amplitude),"Subject 2, 42 mg single dose, 6 hrs after adm. (D 1), vs baseline 79 mmHg",−20.3%
same,SP (reduce amplitude),"Subject 2, 42 mg single dose, 6 hrs after adm. (D 1), vs baseline 113 mmHg",−15.0%
same,DP,"Subject 2, 42 mg single dose, 12 hrs after adm. (D 1), baseline 79 mmHg",69 mmHg
same,SP,"Subject 2, 42 mg single dose, 12 hrs after adm. (D 1), baseline 113 mmHg",96 mmHg
same,DP (reduce amplitude),"Subject 2, 42 mg single dose, 12 hrs after adm. (D 1), vs baseline 79 mmHg",−12.7%
same,SP (reduce amplitude),"Subject 2, 42 mg single dose, 12 hrs after adm. (D 1), vs baseline 113 mmHg",−15.0%
same,DP,"Subject 3, 42 mg single dose, 6 hrs after adm. (D 1), baseline 85 mmHg",72 mmHg
same,SP,"Subject 3, 42 mg single dose, 6 hrs after adm. (D 1), baseline 124 mmHg",118 mmHg
same,DP (reduce amplitude),"Subject 3, 42 mg single dose, 6 hrs after adm. (D 1), vs baseline 85 mmHg",−15.3%
same,SP (reduce amplitude),"Subject 3, 42 mg single dose, 6 hrs after adm. (D 1), vs baseline 124 mmHg",−4.8%
same,DP,"Subject 3, 42 mg single dose, 12 hrs after adm. (D 1), baseline 85 mmHg",61 mmHg
same,SP,"Subject 3, 42 mg single dose, 12 hrs after adm. (D 1), baseline 124 mmHg",98 mmHg
same,DP (reduce amplitude),"Subject 3, 42 mg single dose, 12 hrs after adm. (D 1), vs baseline 85 mmHg",−28.2%
same,SP (reduce amplitude),"Subject 3, 42 mg single dose, 12 hrs after adm. (D 1), vs baseline 124 mmHg",−21.0%
same,DP,"Subject 4, 60 mg single dose, 6 hrs after adm. (D 1), baseline 78 mmHg",58 mmHg
same,SP,"Subject 4, 60 mg single dose, 6 hrs after adm. (D 1), baseline 107 mmHg",93 mmHg
same,DP (reduce amplitude),"Subject 4, 60 mg single dose, 6 hrs after adm. (D 1), vs baseline 78 mmHg",−25.6%
same,SP (reduce amplitude),"Subject 4, 60 mg single dose, 6 hrs after adm. (D 1), vs baseline 107 mmHg",−13.1%
same,DP,"Subject 4, 60 mg single dose, 12 hrs after adm. (D 1), baseline 78 mmHg",58 mmHg
same,SP,"Subject 4, 60 mg single dose, 12 hrs after adm. (D 1), baseline 107 mmHg",90 mmHg
same,DP (reduce amplitude),"Subject 4, 60 mg single dose, 12 hrs after adm. (D 1), vs baseline 78 mmHg",−25.6%
same,SP (reduce amplitude),"Subject 4, 60 mg single dose, 12 hrs after adm. (D 1), vs baseline 107 mmHg",−15.9%
same,DP,"Subject 5, 60 mg single dose, 6 hrs after adm. (D 1), baseline 73 mmHg",62 mmHg
same,SP,"Subject 5, 60 mg single dose, 6 hrs after adm. (D 1), baseline 111 mmHg",93 mmHg
same,DP (reduce amplitude),"Subject 5, 60 mg single dose, 6 hrs after adm. (D 1), vs baseline 73 mmHg",−15.1%
same,SP (reduce amplitude),"Subject 5, 60 mg single dose, 6 hrs after adm. (D 1), vs baseline 111 mmHg",−16.2%
same,DP,"Subject 5, 60 mg single dose, 12 hrs after adm. (D 1), baseline 73 mmHg",61 mmHg
same,SP,"Subject 5, 60 mg single dose, 12 hrs after adm. (D 1), baseline 111 mmHg",95 mmHg
same,DP (reduce amplitude),"Subject 5, 60 mg single dose, 12 hrs after adm. (D 1), vs baseline 73 mmHg",−16.4%
same,SP (reduce amplitude),"Subject 5, 60 mg single dose, 12 hrs after adm. (D 1), vs baseline 111 mmHg",−14.4%
same,DP,"Subject 6, 78 mg single dose, 6 hrs after adm. (D 1), baseline 67 mmHg",61 mmHg
same,SP,"Subject 6, 78 mg single dose, 6 hrs after adm. (D 1), baseline 113 mmHg",103 mmHg
same,DP (reduce amplitude),"Subject 6, 78 mg single dose, 6 hrs after adm. (D 1), vs baseline 67 mmHg",−9.0%
same,SP (reduce amplitude),"Subject 6, 78 mg single dose, 6 hrs after adm. (D 1), vs baseline 113 mmHg",−8.8%
same,DP,"Subject 6, 78 mg single dose, 12 hrs after adm. (D 1), baseline 67 mmHg",54 mmHg
same,SP,"Subject 6, 78 mg single dose, 12 hrs after adm. (D 1), baseline 113 mmHg",104 mmHg
same,DP (reduce amplitude),"Subject 6, 78 mg single dose, 12 hrs after adm. (D 1), vs baseline 67 mmHg",−19.4%
same,SP (reduce amplitude),"Subject 6, 78 mg single dose, 12 hrs after adm. (D 1), vs baseline 113 mmHg",−8.0%
same,DP,"Subject 7, 78 mg single dose, 6 hrs after adm. (D 1), baseline 74 mmHg",62 mmHg
same,SP,"Subject 7, 78 mg single dose, 6 hrs after adm. (D 1), baseline 106 mmHg",94 mmHg
same,DP (reduce amplitude),"Subject 7, 78 mg single dose, 6 hrs after adm. (D 1), vs baseline 74 mmHg",−16.2%
same,SP (reduce amplitude),"Subject 7, 78 mg single dose, 6 hrs after adm. (D 1), vs baseline 106 mmHg",−11.3%
same,DP,"Subject 7, 78 mg single dose, 12 hrs after adm. (D 1), baseline 74 mmHg",60 mmHg
same,SP,"Subject 7, 78 mg single dose, 12 hrs after adm. (D 1), baseline 106 mmHg",102 mmHg
same,DP (reduce amplitude),"Subject 7, 78 mg single dose, 12 hrs after adm. (D 1), vs baseline 74 mmHg",−18.9%
same,SP (reduce amplitude),"Subject 7, 78 mg single dose, 12 hrs after adm. (D 1), vs baseline 106 mmHg",−3.8%
same,DP,"Subject 8, 96 mg single dose, 6 hrs after adm. (D 1), baseline 69 mmHg",51 mmHg
same,SP,"Subject 8, 96 mg single dose, 6 hrs after adm. (D 1), baseline 101 mmHg",79 mmHg
same,DP (reduce amplitude),"Subject 8, 96 mg single dose, 6 hrs after adm. (D 1), vs baseline 69 mmHg",−26.1%
same,SP (reduce amplitude),"Subject 8, 96 mg single dose, 6 hrs after adm. (D 1), vs baseline 101 mmHg",−21.8%
same,DP,"Subject 8, 96 mg single dose, 12 hrs after adm. (D 1), baseline 69 mmHg",61 mmHg
same,SP,"Subject 8, 96 mg single dose, 12 hrs after adm. (D 1), baseline 101 mmHg",87 mmHg
same,DP (reduce amplitude),"Subject 8, 96 mg single dose, 12 hrs after adm. (D 1), vs baseline 69 mmHg",−11.6%
same,SP (reduce amplitude),"Subject 8, 96 mg single dose, 12 hrs after adm. (D 1), vs baseline 101 mmHg",−13.8%
same,DP,"Subject 9, 96 mg single dose, 6 hrs after adm. (D 1), baseline 78 mmHg",63 mmHg
same,SP,"Subject 9, 96 mg single dose, 6 hrs after adm. (D 1), baseline 121 mmHg",105 mmHg
same,DP (reduce amplitude),"Subject 9, 96 mg single dose, 6 hrs after adm. (D 1), vs baseline 78 mmHg",−19.2%
same,SP (reduce amplitude),"Subject 9, 96 mg single dose, 6 hrs after adm. (D 1), vs baseline 121 mmHg",−13.2%
same,DP,"Subject 9, 96 mg single dose, 12 hrs after adm. (D 1), baseline 78 mmHg",68 mmHg
same,SP,"Subject 9, 96 mg single dose, 12 hrs after adm. (D 1), baseline 121 mmHg",103 mmHg
same,DP (reduce amplitude),"Subject 9, 96 mg single dose, 12 hrs after adm. (D 1), vs baseline 78 mmHg",−12.8%
same,SP (reduce amplitude),"Subject 9, 96 mg single dose, 12 hrs after adm. (D 1), vs baseline 121 mmHg",−14.8%
same,DP,"Subject 10, 114 mg single dose, 6 hrs after adm. (D 1), baseline 75 mmHg",62 mmHg
same,SP,"Subject 10, 114 mg single dose, 6 hrs after adm. (D 1), baseline 115 mmHg",92 mmHg
same,DP (reduce amplitude),"Subject 10, 114 mg single dose, 6 hrs after adm. (D 1), vs baseline 75 mmHg",−17.3%
same,SP (reduce amplitude),"Subject 10, 114 mg single dose, 6 hrs after adm. (D 1), vs baseline 115 mmHg",−20.0%
same,DP,"Subject 10, 114 mg single dose, 12 hrs after adm. (D 1), baseline 75 mmHg",57 mmHg
same,SP,"Subject 10, 114 mg single dose, 12 hrs after adm. (D 1), baseline 115 mmHg",90 mmHg
same,DP (reduce amplitude),"Subject 10, 114 mg single dose, 12 hrs after adm. (D 1), vs baseline 75 mmHg",−24.0%
same,SP (reduce amplitude),"Subject 10, 114 mg single dose, 12 hrs after adm. (D 1), vs baseline 115 mmHg",−21.7%
same,DP,"Subject 11, 114 mg single dose, 6 hrs after adm. (D 1), baseline 85 mmHg",68 mmHg
same,SP,"Subject 11, 114 mg single dose, 6 hrs after adm. (D 1), baseline 126 mmHg",119 mmHg
same,DP (reduce amplitude),"Subject 11, 114 mg single dose, 6 hrs after adm. (D 1), vs baseline 85 mmHg",−20.0%
same,SP (reduce amplitude),"Subject 11, 114 mg single dose, 6 hrs after adm. (D 1), vs baseline 126 mmHg",−5.6%
same,DP,"Subject 11, 114 mg single dose, 12 hrs after adm. (D 1), baseline 85 mmHg",68 mmHg
same,SP,"Subject 11, 114 mg single dose, 12 hrs after adm. (D 1), baseline 126 mmHg",105 mmHg
same,DP (reduce amplitude),"Subject 11, 114 mg single dose, 12 hrs after adm. (D 1), vs baseline 85 mmHg",−20.0%
same,SP (reduce amplitude),"Subject 11, 114 mg single dose, 12 hrs after adm. (D 1), vs baseline 126 mmHg",−16.7%
same,DP,"Subject 12, 132 mg single dose, 6 hrs after adm. (D 1), baseline 78 mmHg",59 mmHg
same,SP,"Subject 12, 132 mg single dose, 6 hrs after adm. (D 1), baseline 123 mmHg",120 mmHg
same,DP (reduce amplitude),"Subject 12, 132 mg single dose, 6 hrs after adm. (D 1), vs baseline 78 mmHg",−24.4%
same,SP (reduce amplitude),"Subject 12, 132 mg single dose, 6 hrs after adm. (D 1), vs baseline 123 mmHg",−2.4%
same,DP,"Subject 12, 132 mg single dose, 12 hrs after adm. (D 1), baseline 78 mmHg",60 mmHg
same,SP,"Subject 12, 132 mg single dose, 12 hrs after adm. (D 1), baseline 123 mmHg",105 mmHg
same,DP (reduce amplitude),"Subject 12, 132 mg single dose, 12 hrs after adm. (D 1), vs baseline 78 mmHg",−23.1%
same,SP (reduce amplitude),"Subject 12, 132 mg single dose, 12 hrs after adm. (D 1), vs baseline 123 mmHg",−14.6%
same,DP,"Subject 13, 132 mg single dose, 6 hrs after adm. (D 1), baseline 68 mmHg",54 mmHg
same,SP,"Subject 13, 132 mg single dose, 6 hrs after adm. (D 1), baseline 106 mmHg",97 mmHg
same,DP (reduce amplitude),"Subject 13, 132 mg single dose, 6 hrs after adm. (D 1), vs baseline 68 mmHg",−20.6%
same,SP (reduce amplitude),"Subject 13, 132 mg single dose, 6 hrs after adm. (D 1), vs baseline 106 mmHg",−8.5%
same,DP,"Subject 13, 132 mg single dose, 12 hrs after adm. (D 1), baseline 68 mmHg",56 mmHg
same,SP,"Subject 13, 132 mg single dose, 12 hrs after adm. (D 1), baseline 106 mmHg",96 mmHg
same,DP (reduce amplitude),"Subject 13, 132 mg single dose, 12 hrs after adm. (D 1), vs baseline 68 mmHg",−17.6%
same,SP (reduce amplitude),"Subject 13, 132 mg single dose, 12 hrs after adm. (D 1), vs baseline 106 mmHg",−9.4%
same,effect of a single dose on blood pressure,"all dose groups (6, 12, 42, 60, 78, 96, 114, 132 mg), especially diastolic pressure",can reduce the blood pressure
